From ChEMBL document CHEMBL3045468, “I2 catalyzed FriedelCrafts alkylation reaction of substituted anilines with ninhydrin: formation of novel products and their antimicrobial evaluation” (2013) come the findings set out here.

Values after ≈ are worked out from the molar mass of the structure shown. Active and inactive are the calls of the source. No cut-off for these calls is given here.

The test system of test [1] is Candida tropicalis. The test can be described thus: Antifungal activity against Candida tropicalis clinical isolate assessed as growth inhibition after 96 hr by agar dilution method. The class given is functional.
Test [2] has as its system Aspergillus niger. The test can be described thus: Antifungal activity against Aspergillus niger clinical isolate assessed as growth inhibition after 96 hr by agar dilution method. The class given is functional.
Test [3] concerns Pseudomonas aeruginosa. The test can be described thus: Antibacterial activity against Pseudomonas aeruginosa 71 clinical isolate assessed as growth inhibition at 1 mg/ml after 24 hr by NCCLS agar diffusion method. The class given is functional.
Test [4] relates to Staphylococcus aureus. The test can be described thus: Antibacterial activity against Staphylococcus aureus 29737 clinical isolate assessed as growth inhibition at 1 mg/ml after 24 hr by NCCLS agar diffusion method. The class given is functional.
For test [5], the system named is Cryptococcus neoformans. The test can be described thus: Antifungal activity against Cryptococcus neoformans clinical isolate assessed as growth inhibition at 1 mg/ml after 96 hr by NCCLS agar diffusion method. The class given is functional. The conditions noted are these: read-out: DIZ.
The subject of test [6] is Vibrio cholerae. The test can be described thus: Antibacterial activity against Vibrio cholerae 759 clinical isolate assessed as growth inhibition at 1 mg/ml after 24 hr by NCCLS agar diffusion method. Type of test: functional. The conditions noted are these: Vibrio cholerae, 759, 24 h; read-out: DIZ.
Test [7] has as its system Shigella dysenteriae. The test can be described thus: Antibacterial activity against Shigella dysenteriae 15 clinical isolate assessed as growth inhibition at 1 mg/ml after 24 hr by NCCLS agar diffusion method. The conditions noted are these: for zone of inhibition at 1000 µg/mL: Shigella dysenteriae, 15, 24 h, read-out: DIZ. The class given is functional.
Test [8] concerns Escherichia coli. The test can be described thus: Antibacterial activity against Escherichia coli 319 clinical isolate assessed as growth inhibition at 1 mg/ml after 24 hr by NCCLS agar diffusion method. The class given is functional. The conditions noted are these: for zone of inhibition at 1000 µg/mL: Escherichia coli, 319, 24 h, read-out: DIZ.
In test [9] the test system is Bacillus pumilus. The test can be described thus: Antibacterial activity against Bacillus pumilus 11778 clinical isolate assessed as growth inhibition at 1 mg/ml after 24 hr by NCCLS agar diffusion method. The class given is functional. The conditions noted are these: for zone of inhibition at 1000 µg/mL: Bacillus pumilus, 11778, 24 h, read-out: DIZ.
Test [10] concerns Candida tropicalis. The test can be described thus: Antifungal activity against Candida tropicalis clinical isolate assessed as growth inhibition at 1 mg/ml after 96 hr by NCCLS agar diffusion method. Type of test: functional. The conditions noted are these: read-out: DIZ.
Test [11] deals with Cryptococcus neoformans. The test can be described thus: Antifungal activity against Cryptococcus neoformans clinical isolate assessed as growth inhibition after 96 hr by agar dilution method. The class given is functional.
The next test concerns Micrococcus luteus. The test can be described thus: Antibacterial activity against Micrococcus luteus ATCC 9341 clinical isolate assessed as growth inhibition at 1 mg/ml after 24 hr by NCCLS agar diffusion method. Type of test: functional.
For test [12], the system named is Candida albicans. The test can be described thus: Antifungal activity against Candida albicans clinical isolate assessed as growth inhibition at 1 mg/ml after 96 hr by NCCLS agar diffusion method. Type of test: functional. The conditions noted are these: read-out: DIZ.
In test [13] the test system is Klebsiella pneumoniae. The test can be described thus: Antibacterial activity against Klebsiella pneumoniae J/I/4 clinical isolate assessed as growth inhibition at 1 mg/ml after 24 hr by NCCLS agar diffusion method. The conditions noted are these: for zone of inhibition at 1000 µg/mL: J/I/4, 24 h, read-out: DIZ. The class given is functional.
The subject of test [14] is Candida albicans. The test can be described thus: Antifungal activity against Candida albicans clinical isolate assessed as growth inhibition after 96 hr by agar dilution method. The class given is functional.
Test [15] concerns Aspergillus niger. The test can be described thus: Antifungal activity against Aspergillus niger clinical isolate assessed as growth inhibition at 1 mg/ml after 96 hr by NCCLS agar diffusion method. The class given is functional. The conditions noted are these: read-out: DIZ.
In test [16] the test system is Escherichia coli. The test can be described thus: Bactericidal activity against Escherichia coli 319 clinical isolate assessed as reduction of viable CFU count at MIC measured up to 48 hr relative to untreated control. Type of test: functional, organism-based.
Test [17] has as its system Vibrio cholerae. The test can be described thus: Bactericidal activity against Vibrio cholerae 759 clinical isolate assessed as reduction of viable CFU count at MIC measured up to 48 hr relative to untreated control. The class given is functional, organism-based.
The subject of test [18] is Escherichia coli. The test can be described thus: Antibacterial activity against Escherichia coli 319 clinical isolate assessed as morphological changes at MIC after 24 hr by scanning electron microscopic analysis. Type of test: functional, organism-based.
Test [19] concerns Vibrio cholerae. The test can be described thus: Antibacterial activity against Vibrio cholerae 759 clinical isolate assessed as growth inhibition after 24 hr by agar dilution method. The class given is functional.
The subject of test [20] is Staphylococcus aureus. The test can be described thus: Antibacterial activity against Staphylococcus aureus 29737 clinical isolate assessed as growth inhibition after 24 hr by agar dilution method. Type of test: functional.
Test [21] has as its system Bacillus pumilus. The test can be described thus: Antibacterial activity against Bacillus pumilus 11778 clinical isolate assessed as growth inhibition after 24 hr by agar dilution method. The class given is functional. The conditions noted are these: Bacillus pumilus, 11778, 24 h.
The subject of test [22] is Shigella dysenteriae. The test can be described thus: Antibacterial activity against Shigella dysenteriae 15 clinical isolate assessed as growth inhibition after 24 hr by agar dilution method. Type of test: functional.
The subject of test [23] is Klebsiella pneumoniae. The test can be described thus: Antibacterial activity against Klebsiella pneumoniae J/I/4 clinical isolate assessed as growth inhibition after 24 hr by agar dilution method. The class given is functional.
Test [24] deals with Escherichia coli. The test can be described thus: Antibacterial activity against Escherichia coli 319 clinical isolate assessed as growth inhibition after 24 hr by agar dilution method. Type of test: functional.
Test [25] concerns Pseudomonas aeruginosa. The test can be described thus: Antibacterial activity against Pseudomonas aeruginosa 71 clinical isolate assessed as growth inhibition after 24 hr by agar dilution method. Type of test: functional.

`Nc1ccc(C2(c3ccc(N)c(Br)c3)C(=O)c3ccccc3C2=O)cc1Br`: the MIC in the test on Candida tropicalis [1] was 2000 mg/L (≈ 4110 µM); in the test with Aspergillus niger [2] it was 1000 mg/L (≈ 2060 µM); in the test on Cryptococcus neoformans [11] it was 1500 mg/L (≈ 3090 µM); in the test on Candida albicans [14], 2500 mg/L (≈ 5140 µM). Moreover, the “growth inhibition (GI)” value in the test with Pseudomonas aeruginosa [3], in the test with Staphylococcus aureus [4], with Shigella dysenteriae [7] and in the test on Micrococcus luteus was “inactive” each time. Besides, the zone of inhibition at 1000 µg/mL with Cryptococcus neoformans [5] worked out at 8 mm; in the test on Vibrio cholerae [6] it was 9 mm; in the test on Escherichia coli [8], 8 mm; with Bacillus pumilus [9] it was 8 mm; in the test on Candida tropicalis [10], 8 mm; in the test on Candida albicans [12], 10 mm. Also, the zone of inhibition at 1000 µg/mL in the test on Klebsiella pneumoniae [13] turned out to be 6 mm; with Aspergillus niger [15], 12 mm.

As to `OC(Cn1cncn1)(Cn1cncn1)c1ccc(F)cc1F` [FLUCONAZOLE], the MIC in the test with Candida tropicalis [1] is 8 mg/L (≈ 26.1 µM); with Aspergillus niger [2] it was 10 mg/L (≈ 32.7 µM); with Cryptococcus neoformans [11], 8 mg/L (≈ 26.1 µM); in the test with Candida albicans [14], 4 mg/L (≈ 13.1 µM).

As for `Cc1cc(C2(c3ccc(N)c(C)c3)C(=O)c3ccccc3C2=O)ccc1N`, the MIC amounted to 2000 mg/L (≈ 5610 µM) with Candida tropicalis [1], 1000 mg/L (≈ 2810 µM) in the test on Aspergillus niger [2] and 1000 mg/L (≈ 2810 µM) with Candida albicans [14]. Besides, the result in the test with Escherichia coli [16], in the test with Vibrio cholerae [17] and in the test with Escherichia coli [18] was Active. The “growth inhibition (GI)” value in the test on Pseudomonas aeruginosa [3], in the test on Staphylococcus aureus [4], in the test on Micrococcus luteus and in the test with Klebsiella pneumoniae [13] was “inactive” each time. Also, the zone of inhibition at 1000 µg/mL with Vibrio cholerae [6] stood at 8 mm; with Shigella dysenteriae [7], 7 mm; in the test on Escherichia coli [8] it was 7 mm; in the test on Bacillus pumilus [9], 7 mm; in the test on Candida tropicalis [10], 8 mm; in the test with Candida albicans [12], 10 mm. For the same molecule, the zone of inhibition at 1000 µg/mL with Aspergillus niger [15] is 7.6 mm.

With `Nc1c(Cl)cc(Cl)cc1C1(Nc2ccc(Cl)cc2Cl)C(=O)c2ccccc2C1=O`, the MIC in the test with Candida tropicalis [1] and in the test with Aspergillus niger [2] was 1000 mg/L (≈ 2150 µM) in each case. Further, the “growth inhibition (GI)” value in the test with Pseudomonas aeruginosa [3], with Staphylococcus aureus [4], in the test with Bacillus pumilus [9] and with Micrococcus luteus was “inactive” in each case. Also, the zone of inhibition at 1000 µg/mL in the test on Cryptococcus neoformans [5] was determined as 8 mm; in the test on Vibrio cholerae [6], 7 mm; in the test on Shigella dysenteriae [7], 7 mm; in the test with Escherichia coli [8], 8 mm; in the test on Klebsiella pneumoniae [13] it was 7 mm; in the test with Aspergillus niger [15], 8 mm.

For the molecule `COc1cc(C2(Nc3cc(Cl)ccc3OC)C(=O)c3ccccc3C2=O)c(Cl)cc1N`, the result in the test with Escherichia coli [16] and in the test with Vibrio cholerae [17] was Active. The “growth inhibition (GI)” value in the test on Pseudomonas aeruginosa [3], in the test on Staphylococcus aureus [4], with Shigella dysenteriae [7], in the test with Escherichia coli [8], in the test with Bacillus pumilus [9] and in the test on Klebsiella pneumoniae [13] was “inactive” throughout. In addition, the zone of inhibition at 1000 µg/mL in the test on Vibrio cholerae [6] is 8 mm; in the test on Micrococcus luteus (ATCC 9341, 24 h, read-out: DIZ) it was 9 mm. The MIC in the test on Vibrio cholerae [19] (Vibrio cholerae, 759, 24 h) came to 32000 mg/L (≈ 70000 µM).

With `CC1(C)S[C@@H]2[C@H](NC(=O)[C@H](N)c3ccc(O)cc3)C(=O)N2[C@H]1C(=O)O` [AMOXICILLIN], the MIC in the test on Staphylococcus aureus [20] (Staphylococcus aureus, 29737, 24 h) was 500 mg/L (≈ 1370 µM); with Bacillus pumilus [21] it was 500 mg/L (≈ 1370 µM); in the test on Shigella dysenteriae [22] (Shigella dysenteriae, 15, 24 h) it was 10000 mg/L (≈ 27400 µM).

Consider GENTAMICIN, for which the MIC is 250 mg/L with Klebsiella pneumoniae [23]; 1000 mg/L in the test with Staphylococcus aureus [20]; 500 mg/L in the test on Escherichia coli [24]; 4000 mg/L in the test with Pseudomonas aeruginosa [25]; 2000 mg/L with Shigella dysenteriae [22]; 2000 mg/L in the test on Vibrio cholerae [19].
